Several values for one entry are separate records, joined by “and”; a condition that tells them apart may be missing. Identical values can stand only once. Positions of bridges follow the written chain, without caps; N, C: chain ends. Non-standard residues stand in square brackets, D forms with d. Residues, ends and D or L forms follow the SMILES beside them. *: point of attachment. X1 = CC[C@H](C)CCCCC(=O)*; Dab = NCC[C@H](N)C(=O)O
Tests used:
[1] = system: Klebsiella pneumoniae, 24 clinical isolates and 1 lab strain; format: cell-based
Experimental: Minimum inhibitory concentration (MIC, defined as the minimum AMP concentration to prevent bacterial growth) and biofilm data were obtained by UV–vis spectroscopy using a BioTek Epoch 2 microplate reader.
K. pneumoniae substrains were grown overnight using 50 mL plastic conical tubes on a shaker platform at 37 °C. The following day, serial dilutions of the four SPLUNC1 peptides and LL-37 were tested against these 25 substrains of K. pneumoniae using a 96-well plate. […] Following the addition of the peptides at the tested concentrations from serial dilutions to the K. pneumoniae substrains, the plates were incubated at 37 °C for 16 h. Then, visible spectroscopy at λ = 570 nm was performed to determine the bacterial absorption in each well. Those wells with an optical density reading above a threshold value were deemed resistant to the peptide, while those that were below the threshold value were deemed sensitive to the peptide. The threshold value was determined using Gen5 software with the Di lab Growth Inhibition Assay protocol.
Average MICs and standard deviations were calculated by first averaging the absorbances as a function of AMP concentration in all of the bacterial strains from four total data sets. Then, the average MICs were determined from the averaged absorbances. The standard deviations of the MICs were calculated from each of the absorbances that were used to calculate the average. Then, the standard deviations were averaged across substrains for the graph. These procedures were used to obtain an average MIC with standard deviation across all 25 substrains for one peptide, in order to compare peptide efficacy. Typically, many more substrains are used to obtain an average MIC, so this average MIC may change if thousands of substrains are compared.

[2] = Circular dichroism secondary structure in Euk33 ULVs; format: physicochemical; conditions: 10 μM peptide, 15 mM PBS pH 7, 37 °C
[3] = Circular dichroism secondary structure in G(−)IM ULVs; format: physicochemical; conditions: 10 μM peptide, 15 mM PBS pH 7, 37 °C
Experimental: Unilamellar vesicles (ULVs) of ∼600 Å diameter were prepared using an Avanti extruder: 200 μL of 20 mg/ml G(−)IM lipid in 15 mM PBS was extruded 21 times through Nucleopore filters of size 500 Å using 0.2 mL Hamilton syringes in the Avanti extruder. The final concentration of G(−)IM lipid in the ULVs was determined gravimetrically to be 15 mg/ml. Concentrated ULVs were added to 3 mL of 10 μM peptide in 15 mM PBS at pH 7 to create lipid/peptide molar ratios between 0:1 and 70:1. The samples remained at room temperature for ∼16 h before the CD measurement. Data were collected in 3 mL quartz cuvettes using a Jasco 1500 CD spectrophotometer at 37 °C in the Center for Nucleic Acids Science and Technology at Carnegie Mellon University. The samples were scanned from 200 to 240 nm 20 times, and the ellipticity (ϵ) results were averaged. Temperature was controlled at 37 °C via a Peltier element and water circulation through the sample compartment. Nitrogen gas was used at a flow rate between 20 and 25 ft^3/h (CFH). The parameters for scanning were: speed 100 nm/min, step size 1.0 nm, response time 1 second, bandwidth 1 nm, and sensitivity of 20 mdeg. OriginPro 2019 (OriginLab, Northampton, MA) was used to carry out a linear least-squares fit of the smoothed ellipticity traces to four secondary structural motifs representing α-helix, β-sheet, β-turn, and random coil.[20] This analysis gives a percentage match of each of the secondary structural motifs to the total sample ellipticity. Data were finally converted to mean residue ellipticity, taking into account the peptide concentration (10 μMolar) and number of amino acids (N), using the equation: MRE = (10^4/N)ϵ deg cm^2/dmol.

[4] = G(−)IM/peptide molar ratio 10:1
[5] = G(−)IM/peptide molar ratio 15:1
[6] = G(−)IM/peptide molar ratio 20:1
[7] = G(−)IM/peptide molar ratio 30:1
[8] = G(−)IM/peptide molar ratio 50:1
[9] = G(−)IM/peptide molar ratio 70:1

Compound: GVKKKWKKKLGLTLWLKISGVV [A4-198, version scrambled to α-helical content, with a similar hydrophobicity as A4-153]
- average MIC value ([1]; average over 25 K. pneumoniae substrains, 37 °C, 16 h, OD 570 nm, growth at 32 μM counted as 64 μM): highest MIC value
- antibacterial efficacy ([1]; tested G(−) bacteria (K. pneumoniae)): ineffective
- Random ([2]; Euk33/peptide molar ratio 0:1): 35.9%
- α-helix ([2]; Euk33/peptide molar ratio 0:1): 2.9%
- β-sheet ([2]; Euk33/peptide molar ratio 0:1): 56.7%
- β-turn ([2]; Euk33/peptide molar ratio 0:1): 4.5%
- Random ([2]; Euk33/peptide molar ratio 5:1): 34.7%
- α-helix ([2]; Euk33/peptide molar ratio 5:1): 5.7%
- β-sheet ([2]; Euk33/peptide molar ratio 5:1): 53.6%
- β-turn ([2]; Euk33/peptide molar ratio 5:1): 6.0%
- Random ([2]; Euk33/peptide molar ratio 10:1): 37.0%
- α-helix ([2]; Euk33/peptide molar ratio 10:1): 5.9%
- β-sheet ([2]; Euk33/peptide molar ratio 10:1): 51.9%
- β-turn ([2]; Euk33/peptide molar ratio 10:1): 5.2%
- Random ([2]; Euk33/peptide molar ratio 30:1): 38.7%
- α-helix ([2]; Euk33/peptide molar ratio 30:1): 6.2% and 6%
- β-sheet ([2]; Euk33/peptide molar ratio 30:1): 49.4%
- β-turn ([2]; Euk33/peptide molar ratio 30:1): 5.7%
- Random ([2]; Euk33/peptide molar ratio 70:1): 41.8%
- α-helix ([2]; Euk33/peptide molar ratio 70:1): 10.3%
- β-sheet ([2]; Euk33/peptide molar ratio 70:1): 47.9%
- β-turn ([2]; Euk33/peptide molar ratio 70:1): 0%
- Random ([3]; G(−)IM/peptide molar ratio 0:1): 35.9%
- α-helix ([3]; G(−)IM/peptide molar ratio 0:1): 2.9%
- β-sheet ([3]; G(−)IM/peptide molar ratio 0:1): 56.7%
- β-turn ([3]; G(−)IM/peptide molar ratio 0:1): 4.5%
- Random ([3]; G(−)IM/peptide molar ratio 1:1): 32.7%
- α-helix ([3]; G(−)IM/peptide molar ratio 1:1): 2.6%
- β-sheet ([3]; G(−)IM/peptide molar ratio 1:1): 55.9%
- β-turn ([3]; G(−)IM/peptide molar ratio 1:1): 8.8%
- Random ([3]; G(−)IM/peptide molar ratio 5:1): 41.0%
- α-helix ([3]; G(−)IM/peptide molar ratio 5:1): 22.0%
- β-sheet ([3]; G(−)IM/peptide molar ratio 5:1): 24.4%
- β-turn ([3]; G(−)IM/peptide molar ratio 5:1): 12.6%
- Random [3, 4]: 42.11%
- α-helix [3, 4]: 15.5%
- β-sheet [3, 4]: 32.0%
- β-turn [3, 4]: 10.4%
- Random [3, 5]: 12.1%
- α-helix [3, 5]: 9.1%
- β-sheet [3, 5]: 48.1%
- β-turn [3, 5]: 30.7%
- Random [3, 6]: 30.7%
- α-helix [3, 6]: 4.6%
- β-sheet [3, 6]: 44.5%
- β-turn [3, 6]: 20.2%
- Random [3, 7]: 34.9%
- α-helix [3, 7]: 0.2%
- β-sheet [3, 7]: 44.5%
- β-turn [3, 7]: 20.4%
- Random [3, 8]: 37.6%
- α-helix [3, 8]: 0.2%
- β-sheet [3, 8]: 46.4%
- β-turn [3, 8]: 15.8%
- Random [3, 9]: 37.1%
- α-helix [3, 9]: 2.0%
- β-sheet [3, 9]: 46.2%
- β-turn [3, 9]: 14.7%

Compound: CC[C@H](C)CCCCC(=O)N[C@@H](CCN)C(=O)N[C@H](C(=O)N[C@@H](CCN)C(=O)N[C@H]1CCNC(=O)[C@H]([C@@H](C)O)NC(=O)[C@H](CCN)NC(=O)[C@H](CCN)NC(=O)[C@H](CC(C)C)NC(=O)[C@@H](CC(C)C)NC(=O)[C@H](CCN)NC1=O)[C@@H](C)O [colistin, reference compound] (X1-[Dab]T[Dab][Dab][Dab][dL]L[Dab][Dab]T; lactam 4-C (inferred); N-terminus assumed)
- average MIC, colistin-susceptible substrains only ([1]; 13 colistin-susceptible K. pneumoniae substrains): 0.88 µM
- MIC in the colistin-sensitive substrains ([1]; colistin-sensitive K. pneumoniae substrains): < 2 µM

Source: PMC10265666, “Lung SPLUNC1 Peptide Derivatives in the Lipid Membrane Headgroup Kill Gram-Negative Planktonic and Biofilm Bacteria” (Biomacromolecules, 2023)
